From ChEMBL document CHEMBL1201862, “PubChem BioAssay data set” (2004) come the findings set out here.

Calls of active or inactive are those of the source.

The target of assay [1] is T1, Trace amine-associated receptor 1 (Homo sapiens, UniProt Q96RJ0).
T1 sequence (Q96RJ0 whole entry): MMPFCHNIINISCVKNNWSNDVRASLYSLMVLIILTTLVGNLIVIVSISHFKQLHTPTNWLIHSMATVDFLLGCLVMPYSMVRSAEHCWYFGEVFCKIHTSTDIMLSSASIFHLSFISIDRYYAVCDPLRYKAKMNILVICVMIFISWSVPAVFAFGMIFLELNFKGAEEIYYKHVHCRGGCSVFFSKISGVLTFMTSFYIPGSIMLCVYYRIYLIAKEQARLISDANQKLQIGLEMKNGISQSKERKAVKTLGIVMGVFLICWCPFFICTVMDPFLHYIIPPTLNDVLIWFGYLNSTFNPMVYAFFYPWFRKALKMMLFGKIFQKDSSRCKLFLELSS
Kind of assay: Fluorescence-based cell-based high throughput dose response assay to identify agonists of the human trace amine associated receptor 1 (TAAR1). It counts as functional.

A short description of assay [2]: cells. It is filed as functional, cell-based.
Assay [3] has as its target T1, Trace amine-associated receptor 1. Kind of assay: Counterscreen for agonists of the human trace amine associated receptor 1 (hTAAR1): Fluorescence-based cell-based high throughput dose response assay to identify hTAAR1 agonist that also desensitize TAAR1 receptor response. It is filed as functional. Background: Counterscreens check selectivity or assay interference.

A short description of assay [4]: cells. It is filed as functional, cell-based. This is another data set of the same source.
Assay [5] in a line: blockers of bursicon-stimulated LGR2 cAMP reporter – cell-based, HEK293, CRE-luciferase reporter, cherry pick, set 2, dose response (AID 743343).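 Also: transfected cells were stimulated with diluted bursicon conditioned medium after compound addition.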 It is filed as functional. Background: In a reporter assay the amount or activity of a reporter protein is the signal.
Assay [6] is described as follows: blockade of melanocortin 4 receptor signaling – cell-based, plate reader, cherry pick, counter-screen for LGR2 antagonist project, dose response (AID 743444).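 Also: transfected HEK 293 cells stimulated with alpha-MSH peptide; potency of inhibitors of the alpha-MSH evoked signal.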 It counts as functional.
Assay [7] is described as follows: A549 cell cytotoxicity, dose response, cytotoxicity control, plate reader, cherry-pick, antagonist series (AID 743412). It is filed as functional, cell-based.
Assay [8] can be described thus: viability loss in HEK293 cells – cell-based, plate reader, cherry-picked samples, cytotoxicity control, dose response (AID 743446). It is filed as functional.
Assay [9] addresses Heat shock protein HSP 90-alpha (Homo sapiens, UniProt P07900). Kind of assay: Luminescence-based dose response biochemical high throughput screening assay for inhibitors of the Heat Shock Protein 90 (HSP90). [Related pubchem assays: 1831 (Summary AID.), 1846 (Confirmation screen.), 1789 (Primary screen.)].
Assay [10] in a line: Trypanosoma cruzi growth suppression in host cells – NIH3T3 host cells, beta-gal luminescence, confirmation (AID 2044).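 Also: intracellular parasites grown in NIH/3T3 mouse fibroblasts as host cells; luminescent beta-galactosidase reporter signal from transgenic T. cruzi replicating inside host cells; inhibitors lower the luminescence signal.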 It is filed as functional, cell-based.
Assay [11] concerns Streptococcus. Kind of assay: GAS UMAA2166 growth inhibition – luminescence, BacTiterGlo, counter-screen for streptokinase expression inhibitor project, dose response (AID 1915).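 Also: potency for reduction of bacterial viability or growth.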 It is filed as functional, organism-based.
Assay [12] deals with Streptococcus sp. 'group A'. Nature of the assay: Streptococcus pyogenes SK(-)GAS viability under kanamycin – luminescence, BacTiterGlo, confirmation, counter-screen for streptokinase expression inhibitor project, dose response (AID 1900). It is filed as functional, organism-based.
A short description of assay [13]: NIH3T3 cell viability loss – ATP luminescence, mouse fibroblasts, counter-screen, dose response (AID 2010).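 Also: cells exposed to compound for about 90 hours before reading.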 It is filed as functional, cell-based.
Assay [14] addresses Disintegrin and metalloproteinase domain-containing protein 17 (Homo sapiens, UniProt P78536). Kind of assay: inhibition of ADAM17 substrate cleavage – biochemical, quenched FRET substrate, counter-screen for ADAM10 exosite inhibitor project, dose response (AID 743253).
Assay [15] in a line: microbe, parasite or virus in culture. It is filed as functional. The conditions noted are these: Mycobacterium tuberculosis.
In assay [16] the target is T2, Streptokinase A (Streptococcus pyogenes serotype M1, UniProt P10520).
T2 sequence (P10520 whole entry): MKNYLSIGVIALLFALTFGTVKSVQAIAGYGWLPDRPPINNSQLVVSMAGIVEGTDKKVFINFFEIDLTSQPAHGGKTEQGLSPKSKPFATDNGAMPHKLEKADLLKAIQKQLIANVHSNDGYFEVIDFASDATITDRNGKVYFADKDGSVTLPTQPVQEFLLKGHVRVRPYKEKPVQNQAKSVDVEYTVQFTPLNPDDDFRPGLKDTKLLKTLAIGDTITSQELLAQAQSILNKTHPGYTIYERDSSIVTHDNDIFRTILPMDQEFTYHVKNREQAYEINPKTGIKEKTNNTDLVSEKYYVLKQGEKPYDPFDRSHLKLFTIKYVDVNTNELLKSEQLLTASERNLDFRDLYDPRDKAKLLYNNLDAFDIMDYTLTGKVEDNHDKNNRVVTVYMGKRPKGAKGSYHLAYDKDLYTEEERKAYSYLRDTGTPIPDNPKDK
Nature of the assay: viability-normalized secreted streptokinase activity reduction – plasminogen activation absorbance, OD405, dose response (AID 1914).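 Also: secreted streptokinase activity via plasminogen activation per viability signal from cell pellet.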 It counts as functional, Streptococcus pyogenes M1 GAS.

The target of assay [17] is T3, Mannose-6-phosphate isomerase (Homo sapiens, UniProt P34949).
T3 sequence (P34949 whole entry): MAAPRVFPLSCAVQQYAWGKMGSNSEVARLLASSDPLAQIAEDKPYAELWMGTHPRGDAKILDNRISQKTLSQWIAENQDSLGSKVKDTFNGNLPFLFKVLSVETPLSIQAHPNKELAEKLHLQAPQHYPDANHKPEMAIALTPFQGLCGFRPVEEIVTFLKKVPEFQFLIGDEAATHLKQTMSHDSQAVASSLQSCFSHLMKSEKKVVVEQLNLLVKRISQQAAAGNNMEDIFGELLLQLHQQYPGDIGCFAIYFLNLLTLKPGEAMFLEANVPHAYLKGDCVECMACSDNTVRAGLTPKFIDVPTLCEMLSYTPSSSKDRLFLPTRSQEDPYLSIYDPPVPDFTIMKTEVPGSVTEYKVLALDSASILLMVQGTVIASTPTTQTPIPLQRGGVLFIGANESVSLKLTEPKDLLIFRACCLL
Kind of assay: MPI inhibition at elevated mannose 6-phosphate – biochemical, fluorescence intensity, high mannose 6-phosphate, primary screen (AID 1220).

Assay [18] can be described thus: NIH-3T3 fibroblast cytotoxicity, dose response, cytotoxicity control, cell-based, fluorescence, Alamar Blue, secondary assay (AID 2327).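 Also: NIH-3T3 mouse fibroblasts cultured with fluconazole at 8 µg/mL.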 It counts as functional. (The colour change of resazurin is a common sign of viable cells or microbes.)
Assay [19] is described as follows: fluconazole-exposed Candida albicans growth modulators – fluorescence, retest, confirmation (AID 2467). It counts as functional, cell-based.
The target in assay [20] is T4, Replicative DNA helicase DnaB (Mycobacterium tuberculosis, UniProt P9WMR3).
T4 sequence (P9WMR3 whole entry): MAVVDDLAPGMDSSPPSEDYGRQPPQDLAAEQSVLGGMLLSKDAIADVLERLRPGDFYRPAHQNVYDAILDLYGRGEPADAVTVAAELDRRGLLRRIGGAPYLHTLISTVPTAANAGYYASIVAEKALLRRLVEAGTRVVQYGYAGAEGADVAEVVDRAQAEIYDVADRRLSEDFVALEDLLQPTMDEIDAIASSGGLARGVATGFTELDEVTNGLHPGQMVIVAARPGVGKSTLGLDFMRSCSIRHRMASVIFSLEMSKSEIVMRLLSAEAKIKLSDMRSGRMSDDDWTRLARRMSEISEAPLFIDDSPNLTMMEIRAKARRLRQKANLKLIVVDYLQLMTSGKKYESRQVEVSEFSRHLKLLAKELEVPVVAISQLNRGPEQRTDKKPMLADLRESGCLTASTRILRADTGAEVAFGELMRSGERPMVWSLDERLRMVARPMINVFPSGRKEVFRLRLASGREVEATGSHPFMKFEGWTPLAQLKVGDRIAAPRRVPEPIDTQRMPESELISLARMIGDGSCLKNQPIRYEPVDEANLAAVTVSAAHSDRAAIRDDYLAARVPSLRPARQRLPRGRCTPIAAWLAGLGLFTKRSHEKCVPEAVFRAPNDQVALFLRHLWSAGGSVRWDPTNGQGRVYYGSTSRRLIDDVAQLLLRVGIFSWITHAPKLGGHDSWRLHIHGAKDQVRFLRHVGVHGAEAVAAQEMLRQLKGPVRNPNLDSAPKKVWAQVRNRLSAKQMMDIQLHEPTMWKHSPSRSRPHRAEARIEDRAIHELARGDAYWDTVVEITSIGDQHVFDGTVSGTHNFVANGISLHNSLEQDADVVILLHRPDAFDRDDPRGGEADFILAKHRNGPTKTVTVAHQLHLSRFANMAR
Nature of the assay: DnaB intein splicing inhibitors, dose response, biochemical, cell-free fluorescence (AID 449749). It is filed as functional.

Assay [21] concerns the target Paired box protein Pax-8 (Homo sapiens, UniProt Q06710). Nature of the assay: PAX8 transcriptional activity inhibition in RMG-I – RMG-I cells, luciferase, cherry-pick, dose response (AID 687027).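 Also: luciferase reporter driven by Pax8 target thyroperoxidase promoter measured by SteadyGlo luminescence.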 It counts as functional, cell-based.
In assay [22] the target is T5, Protein RecA (Mycobacterium tuberculosis, UniProt P9WHJ3).
T5 sequence (P9WHJ3 whole entry): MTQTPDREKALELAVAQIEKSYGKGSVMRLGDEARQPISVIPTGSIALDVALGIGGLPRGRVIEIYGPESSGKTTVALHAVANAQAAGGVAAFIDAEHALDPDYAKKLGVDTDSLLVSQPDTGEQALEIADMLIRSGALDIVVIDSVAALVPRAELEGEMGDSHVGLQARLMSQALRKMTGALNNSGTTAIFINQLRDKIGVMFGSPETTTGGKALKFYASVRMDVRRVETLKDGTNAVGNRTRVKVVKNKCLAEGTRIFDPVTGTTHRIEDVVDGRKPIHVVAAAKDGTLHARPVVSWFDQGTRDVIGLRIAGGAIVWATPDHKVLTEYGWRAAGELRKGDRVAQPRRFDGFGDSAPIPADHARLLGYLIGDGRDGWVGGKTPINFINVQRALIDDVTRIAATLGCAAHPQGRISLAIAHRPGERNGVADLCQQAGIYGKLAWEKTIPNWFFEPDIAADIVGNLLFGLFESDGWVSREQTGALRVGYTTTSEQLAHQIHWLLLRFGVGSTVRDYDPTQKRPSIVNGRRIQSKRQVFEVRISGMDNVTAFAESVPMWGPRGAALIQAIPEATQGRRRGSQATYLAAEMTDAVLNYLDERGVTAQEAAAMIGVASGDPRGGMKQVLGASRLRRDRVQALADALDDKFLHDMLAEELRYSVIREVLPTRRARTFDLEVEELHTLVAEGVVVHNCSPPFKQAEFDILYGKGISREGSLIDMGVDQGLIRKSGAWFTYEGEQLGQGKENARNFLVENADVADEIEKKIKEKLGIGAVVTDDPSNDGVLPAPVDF
Nature of the assay: Fluorescence Cell-Free Homogeneous Dose Retest to Identify Inhibitors of RecA-Intein Splicing Activity. [Related pubchem assays (depositor defined):AID2097, AID2223, AID489010, AID492950]. It counts as functional.

Assay [23] can be described thus: general cell-killing toxicity readout – plate reader, dry powder samples, cytotoxicity control for PAX8 inhibitor project, dose response (AID 743021). It is filed as functional, cell-based.

Sequence of Paired box protein Pax-8 (Q06710 whole entry): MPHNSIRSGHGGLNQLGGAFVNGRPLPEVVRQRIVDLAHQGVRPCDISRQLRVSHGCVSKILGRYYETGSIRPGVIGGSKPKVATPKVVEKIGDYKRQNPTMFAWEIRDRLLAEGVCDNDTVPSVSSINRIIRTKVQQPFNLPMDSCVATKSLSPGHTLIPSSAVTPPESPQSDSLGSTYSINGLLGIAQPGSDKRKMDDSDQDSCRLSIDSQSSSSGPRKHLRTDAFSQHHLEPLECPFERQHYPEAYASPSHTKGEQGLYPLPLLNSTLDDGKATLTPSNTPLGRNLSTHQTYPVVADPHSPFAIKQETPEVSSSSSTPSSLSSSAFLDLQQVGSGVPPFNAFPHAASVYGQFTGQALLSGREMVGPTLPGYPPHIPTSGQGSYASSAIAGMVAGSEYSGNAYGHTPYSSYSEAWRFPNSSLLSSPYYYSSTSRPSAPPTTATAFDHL
Sequence of Disintegrin and metalloproteinase domain-containing protein 17 (P78536 whole entry, the tested form may be a part): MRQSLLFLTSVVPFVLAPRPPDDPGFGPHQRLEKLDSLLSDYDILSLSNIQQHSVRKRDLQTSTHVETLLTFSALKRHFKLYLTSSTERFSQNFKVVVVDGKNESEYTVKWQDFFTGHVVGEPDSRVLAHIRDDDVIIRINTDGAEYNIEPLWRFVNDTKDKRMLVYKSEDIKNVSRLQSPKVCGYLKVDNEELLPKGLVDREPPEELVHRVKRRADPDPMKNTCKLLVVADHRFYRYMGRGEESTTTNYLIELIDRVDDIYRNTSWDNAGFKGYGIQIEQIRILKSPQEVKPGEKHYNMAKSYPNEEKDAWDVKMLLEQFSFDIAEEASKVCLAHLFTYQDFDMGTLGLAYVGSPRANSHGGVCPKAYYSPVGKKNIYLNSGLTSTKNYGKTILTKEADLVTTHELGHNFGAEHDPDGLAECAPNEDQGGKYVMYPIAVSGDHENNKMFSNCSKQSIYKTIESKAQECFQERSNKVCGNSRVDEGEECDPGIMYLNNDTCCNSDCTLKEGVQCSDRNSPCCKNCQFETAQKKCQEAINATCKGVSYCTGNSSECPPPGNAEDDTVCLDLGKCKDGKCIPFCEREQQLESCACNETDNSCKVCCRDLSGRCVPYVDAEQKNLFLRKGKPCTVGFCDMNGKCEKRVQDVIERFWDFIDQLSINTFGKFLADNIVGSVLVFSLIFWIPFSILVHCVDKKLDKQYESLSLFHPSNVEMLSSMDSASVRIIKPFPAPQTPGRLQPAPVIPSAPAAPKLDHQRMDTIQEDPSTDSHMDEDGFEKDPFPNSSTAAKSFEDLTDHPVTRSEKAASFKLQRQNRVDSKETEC

By EC50 is commonly meant the concentration needed to bring the measured effect to its halfway point. Broadly, the IC50 is the concentration needed to halve the response being measured. As to `Cc1cc(S(=O)(=O)Nc2cccc(Cl)c2)c(C)s1`, the half-maximal effective concentration (EC50) in assay [1] is 4.88 µM (active); in assay [2], > 29.9 µM (inactive). In addition, the values for the half-inhibitory concentration (IC50) in assay [3] and in [4] were 8.66 µM (active) and > 29.9 µM (inactive), respectively.

Broadly, the AC50 is the concentration giving half of the maximal activity seen. Take `O=C(Nc1ccc(Cl)cc1Cl)c1ccc2c(c1)OCCO2`: the AC50 in [5] is 6.49 µM (active); in assay [6] it was 12.9 µM (active); in [7], 42.4 µM (active); in [8], > 52 µM (inactive).

Take `O=C(Cc1ccccc1)N1CCN(S(=O)(=O)c2ccc([N+](=O)[O-])cc2)CC1`: in assay [9], the half-inhibitory concentration (IC50) is 29.1 µM (not active).

For `Cc1cc(C)c(CSc2nc(-c3ccc([N+](=O)[O-])cc3)c[nH]2)c(C)c1`, the EC50 is 3.48 µM (active) in [10]; 39.4 µM (active) in assay [11]; 3.92 µM (active) in assay [12]; > 60 µM (inconclusive) in assay [13]; 10.3 µM (active) in assay [16]. In addition, the IC50 in assay [14] is > 69.5 µM (inactive). Further, the CC50 in [15] was 22.3 µM (active).

Consider `CCOC(=O)N1CCN(Cc2ccc(O)c3ncccc23)CC1`, for which, in assay [17], the IC50 is 10.6 µM (active). Besides, the values for the EC50 in assay [18] and in [19] were > 150 µM (inactive) and > 38 µM (not active), respectively.

With `O=C(CCl)N(Cc1ccccc1)c1ccccc1`, the half-maximal activity concentration (AC50) was 18.4 µM (active) in assay [20], 3.95 µM (active) in [21] and 9.34 µM (active) in [23]. Moreover, in [22], the concentration giving a half-maximal response (EC50) was 0.813 µM (active).
